According to patent publication US7732449B2, “Inhibitors of cathepsin S” (IRM LLC, priority 2003, dated 2010):
Where two headings read alike, the source gives them in different places.

Key:
Format in all cases: biochemical
Cathepsin L = Cathepsin L (Homo sapiens, UniProt P07711); test: Cathepsin L inhibition, fluorogenic peptide substrate kinetic assay (selectivity); settings: ratio of cathepsin L inhibition constant to cathepsin S inhibition constant
Cathepsin S = Cathepsin S (Homo sapiens, UniProt P25774); test: Cathepsin S inhibition, fluorogenic peptide substrate kinetic assay;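 also: cleavage rate of a coumarin-labelled peptide substrate (50 µM) read as fluorescence increase at Ex 380 nm and Em 450 nm, relative to inhibitor-free control reactions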
Cathepsin S, sequence (P25774 115-331, species assumed): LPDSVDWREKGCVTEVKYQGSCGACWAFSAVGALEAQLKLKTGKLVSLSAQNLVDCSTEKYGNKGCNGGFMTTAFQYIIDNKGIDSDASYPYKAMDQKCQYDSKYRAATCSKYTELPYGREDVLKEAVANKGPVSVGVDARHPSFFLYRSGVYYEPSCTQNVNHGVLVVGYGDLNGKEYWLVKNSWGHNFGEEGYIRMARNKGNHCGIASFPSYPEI

Cathepsin B = Cathepsin B (Homo sapiens, UniProt P07858); test: Cathepsin B inhibition, fluorogenic peptide substrate kinetic assay (selectivity); settings: ratio of cathepsin B inhibition constant to cathepsin S inhibition constant;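 also: value is the cathepsin B inhibition constant divided by the cathepsin S one, each from kinetic fluorescence readings (ex 380 nm, em 450 nm) of a 10 µM coumarin peptide substrate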
Cathepsin K = biological target: T1, Cathepsin K (Homo sapiens, UniProt P43235); test: Cathepsin K inhibition, fluorogenic peptide substrate kinetic assay (selectivity); settings: ratio of cathepsin K inhibition constant to cathepsin S inhibition constant
T1 sequence (P43235 115-329): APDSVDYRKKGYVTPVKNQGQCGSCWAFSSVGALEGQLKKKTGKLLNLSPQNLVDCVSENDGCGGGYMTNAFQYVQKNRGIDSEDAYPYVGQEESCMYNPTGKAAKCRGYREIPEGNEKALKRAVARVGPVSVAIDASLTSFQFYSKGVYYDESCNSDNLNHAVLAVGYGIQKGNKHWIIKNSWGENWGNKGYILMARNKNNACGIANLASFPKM

[1] = Cathepsin S inhibition constant, pH5.5, 20 minutes preincubation at room temperature, read-out: Ki Cat. S

Cathepsin L, sequence (P07711 114-333, species assumed): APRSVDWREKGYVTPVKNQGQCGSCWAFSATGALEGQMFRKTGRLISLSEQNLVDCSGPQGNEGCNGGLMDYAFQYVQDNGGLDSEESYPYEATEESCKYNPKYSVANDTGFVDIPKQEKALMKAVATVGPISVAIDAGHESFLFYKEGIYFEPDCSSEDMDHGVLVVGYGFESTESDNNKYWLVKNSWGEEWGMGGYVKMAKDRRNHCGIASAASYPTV

Row | Selectivity for Cat. S over Cat. L (Cathepsin L) | Ki (Cathepsin S; [1]) [nM] | Selectivity for Cat. S over Cat. B (Cathepsin B) | Selectivity for Cat. S over Cat. K (Cathepsin K) | Ki (Cathepsin S) [nM] | SMILES
1 | + (+, >10) | 1000 to 10000 | + (+, >10) | + (+, >10) |  | C[C@@H](CNc1ccc(OC(F)(F)F)cc1)NC(=O)[C@@H](CC(=O)N1CCOCC1)c1ccccc1 [Example 61, N-[1-(S)-Methyl-2-(4-trifluoromethoxy-phenylamino)-ethyl]-4-morpholin-4-yl-4-oxo-2-(S)-phenyl-butyramide]
2 | ++ (++, >100) | 100 to 1000 | ++ (++, >100) | ++ (++, >100) |  | C[C@@H](CNc1ccc(OC(F)(F)F)cc1)NC(=O)[C@@H](CC(=O)N1CCOCC1)c1ccc(F)cc1 [Example 62, 2-(S)-(4-Fluoro-phenyl)-N-[1-(S)-methyl-2-(4-trifluoromethoxy-phenylamino)-ethyl]-4-morpholin-4-yl-4-oxo-butyramide]
3 | ++ (++, >100) | 100 to 1000 | ++ (++, >100) | ++ (++, >100) |  | COc1ccc([C@H](CC(=O)N2CCOCC2)C(=O)N[C@@H](C)CNc2ccc(OC(F)(F)F)cc2)cc1 [Example 63, 2-(S)-(4-Methoxy-phenyl)-N-[1-(S)-methyl-2-(4-trifluoromethoxy-phenylamino)-ethyl]-4-morpholin-4-yl-4-oxo-butyramide]
4 | + (+, >10) | 100 to 1000 | ++ (++, >100) | + (+, >10) |  | COc1ccc(NC[C@@H](NC(=O)[C@@H](CC(=O)N2CCOCC2)c2ccc(F)cc2)C(C)C)cn1 [Example 64, 2-(S)-(4-Fluoro-phenyl)-N-{1-(S)-[(6-methoxy-pyridin-3-ylamino)-methyl]-2-methyl-propyl}-4-morpholin-4-yl-4-oxo-butyramide]
5 | ++ (++, >100) | 100 to 1000 | ++ (++, >100) | ++ (++, >100) |  | C[C@@H](CNc1ccc(OC(F)(F)F)cc1)NC(=O)[C@@H](CC(=O)N1CCOCC1)CC1CCC2(CC1)CC2 [Example 65, N-[1-(S)-Methyl-2-(4-trifluoromethoxy-phenylamino)-ethyl]-4-morpholin-4-yl-4-oxo-2-(R)-spiro[2.5]oct-6-ylmethyl-butyramide]
6 | + (+, >10) | 1000 to 10000 | + (+, >10) | + (+, >10) |  | CC(C)[C@@H](CNc1cccc(S(C)(=O)=O)c1)NC(=O)[C@@H](CC(=O)N1CCOCC1)c1ccc(F)cc1 [Example 67, 2-(S)-(4-Fluoro-phenyl)-N-{1-(S)-[(3-methanesulfonyl-phenylamino)-methyl]-2-methyl-propyl}-4-morpholin-4-yl-4-oxo-butyramide]
7 | +++ (+++, >1000) | < 100 | +++ (+++, >1000) | ++ (++, >100) |  | CC(C)[C@@H](CN1CC(C)(C)c2cc(F)ccc21)NC(=O)[C@@H](CC(=O)N1CCOCC1)c1ccc(C(F)(F)F)cc1 [Example 68, N-[1-(S)-(5-Fluoro-3,3-dimethyl-2,3-dihydro-indol-1-ylmethyl)-2-methyl-propyl]-4-morpholin-4-yl-4-oxo-2-(S)-(4-trifluoromethyl-phenyl)-butyramide]
8 | ++ (++, >100) | 100 to 1000 | ++ (++, >100) | + (+, >10) |  | CC1(C)CN(C[C@@H](NC(=O)[C@@H](CC(=O)N2CCOCC2)c2ccc(C(F)(F)F)cc2)C2CC2)c2ccc(F)cc21 [Example 69, N-[1-(S)-Cyclopropyl-2-(5-fluoro-3,3-dimethyl-2,3-dihydro-indol-1-yl)-ethyl]-4-morpholin-4-yl-4-oxo-2-(S)-(4-trifluoromethyl-phenyl)-butyramide]
9 | ++ (++, >100) |  | ++ (++, >100) | ++ (++, >100) | 100 to 1000 | O=C(N[C@H](CNc1ccc(OC(F)(F)F)cc1)C1CC1)[C@@H](CC(=O)N1CCOCC1)c1ccc(C(F)(F)F)cc1 [Example 70, N-[1-(S)-Cyclopropyl-2-(4-trifluoromethoxy-phenylamino)-ethyl]-4-morpholin-4-yl-4-oxo-2-(S)-(4-trifluoromethyl-phenyl)-butyramide]
10 | + (+, >10) | < 100 | ++ (++, >100) | ++ (++, >100) |  | COc1ccc(NC[C@H](C)NC(=O)[C@H](CC2CCCCC2)NC(=O)N2CCOCC2)cc1 [Example 72, (S,S)-Morpholine-4-carboxylic acid {2-cyclohexyl-1-[2-(4-methoxy-phenylamino)-1-methyl-ethylcarbamoyl]-ethyl}-amide]
11 | + (+, >10) | < 100 | ++ (++, >100) | + (+, >10) |  | COc1ccc(NC[C@H](C)NC(=O)[C@H](CC2CCCC2)NC(=O)N2CCOCC2)cc1 [Example 73, Morpholine-4-carboxylic acid {2-cyclopentyl-1-(S)-[2-(4-methoxy-phenylamino)-1-(S)-methyl-ethylcarbamoyl]-ethyl}-amide]
12 | + (+, >10) | 100 to 1000 | ++ (++, >100) | + (+, >10) |  | Cc1cc(NC[C@H](C)NC(=O)[C@H](CC2CCCCC2)NC(=O)N2CCOCC2)no1 [Example 77, Morpholine-4-carboxylic acid {2-cyclohexyl-1-(S)-[1-(S)-methyl-2-(5-methyl-isoxazol-3-ylamino)-ethylcarbamoyl]-ethyl}-amide]
13 | + (+, >10) | < 100 | +++ (+++, >1000) | +++ (+++, >1000) |  | C[C@@H](CN1CC(C)(C)c2cc(F)ccc21)NC(=O)[C@H](CC1CCCCC1)NC(=O)N1CCOCC1 [Example 80, (S,S)-Morpholine-4-carboxylic acid {2-cyclohexyl-1-[2-(5-fluoro-3,3-dimethyl-2,3-dihydro-indol-1-yl)-1-methyl-ethylcarbamoyl]-ethyl}-amide]
14 | + (+, >10) | < 100 | +++ (+++, >1000) | ++ (++, >100) |  | CC1(C)CN(C[C@@H](NC(=O)[C@H](CC2CCCCC2)NC(=O)N2CCOCC2)C2CC2)c2ccc(F)cc21 [Example 81, Morpholine-4-carboxylic acid {2-cyclohexyl-1-(S)-[1-(S)-cyclopropyl-2-(5-fluoro-3,3-dimethyl-2,3-dihydro-indol-1-yl)-ethylcarbamoyl]-ethyl}-amide]
15 | + (+, >10) | 1000 to 10000 | + (+, >10) | + (+, >10) |  | CC(=O)NS(=O)(=O)c1ccc(NC[C@H](C)NC(=O)O[C@@H](CC2CCCCC2)C(=O)N2CCOCC2)cc1 [Example 89, [2-(4-Acetylsulfamoyl-phenylamino)-1-(S)-methyl-ethyl]-carbamic acid 1-(S)-cyclohexylmethyl-2-morpholin-4-yl-2-oxo-ethyl ester]
16 | + (+, >10) | 1000 to 10000 | + (+, >10) | + (+, >10) |  | Cc1cc(NC[C@H](C)NC(=O)O[C@@H](CC2CCCCC2)C(=O)N2CCOCC2)no1 [Example 91, [1-(S)-Methyl-2-(5-methyl-isoxazol-3-ylamino)-ethyl]-carbamic acid 1-(S)-cyclohexylmethyl-2-morpholin-4-yl-2-oxo-ethyl ester]
17 | +++ (+++, >1000) | < 100 | +++ (+++, >1000) | +++ (+++, >1000) |  | CC[C@@H](CN1CC(C)(C)c2cc(F)ccc21)NC(=O)O[C@@H](CC1CCCCC1)C(=O)N1CCOCC1 [Example 92, (S,S)-[1-(5-Fluoro-3,3-dimethyl-2,3-dihydro-indol-1-yl-methyl)-propyl]-carbamic acid 1-cyclohexylmethyl-2-morpholin-4-yl-2-oxo-ethyl ester]
18 | + (+, >10) | 1000 to 10000 | + (+, >10) | + (+, >10) |  | CC(=O)N1CCN(C(=O)[C@H](CC2CCCCC2)OC(=O)N[C@@H](C)CN2c3ccc(F)cc3CC2(C)C)CC1 [Example 94, (S,S)-[2-(5-Fluoro-2,2-dimethyl-2,3-dihydro-indol-1-yl)-1-methyl-ethyl]-carbamic acid 2-(4-acetyl-piperazin-1-yl)-1-cyclohexylmethyl-2-oxo-ethyl ester]
19 | + (+, >10) | 1000 to 10000 | + (+, >10) | + (+, >10) |  | C[C@@H](CN1c2ccc(F)cc2CC1(C)C)NC(=O)O[C@@H](CC1CCCCC1)C(=O)N1CCN(S(C)(=O)=O)CC1 [Example 95, [2-(5-Fluoro-2,2-dimethyl-2,3-dihydro-indol-1-yl)-1-(S)-methyl-ethyl]-carbamic acid 1-(S)-cyclohexylmethyl-2-(4-methanesulfonyl-piperazin-1-yl)-2-oxo-ethyl ester]
